{
  "source": "ChEMBL document CHEMBL4138094",
  "about": "“Discorhabdin alkaloids from Antarctic Latrunculia spp. sponges as a new class of cholinesterase inhibitors” (Eur J Med Chem, 2017)",
  "key": {"[1]": {"biological_target": "Acetylcholinesterase (Electrophorus electricus) (UniProt O42275)", "sequence (O42275 24-633 limits assumed)": "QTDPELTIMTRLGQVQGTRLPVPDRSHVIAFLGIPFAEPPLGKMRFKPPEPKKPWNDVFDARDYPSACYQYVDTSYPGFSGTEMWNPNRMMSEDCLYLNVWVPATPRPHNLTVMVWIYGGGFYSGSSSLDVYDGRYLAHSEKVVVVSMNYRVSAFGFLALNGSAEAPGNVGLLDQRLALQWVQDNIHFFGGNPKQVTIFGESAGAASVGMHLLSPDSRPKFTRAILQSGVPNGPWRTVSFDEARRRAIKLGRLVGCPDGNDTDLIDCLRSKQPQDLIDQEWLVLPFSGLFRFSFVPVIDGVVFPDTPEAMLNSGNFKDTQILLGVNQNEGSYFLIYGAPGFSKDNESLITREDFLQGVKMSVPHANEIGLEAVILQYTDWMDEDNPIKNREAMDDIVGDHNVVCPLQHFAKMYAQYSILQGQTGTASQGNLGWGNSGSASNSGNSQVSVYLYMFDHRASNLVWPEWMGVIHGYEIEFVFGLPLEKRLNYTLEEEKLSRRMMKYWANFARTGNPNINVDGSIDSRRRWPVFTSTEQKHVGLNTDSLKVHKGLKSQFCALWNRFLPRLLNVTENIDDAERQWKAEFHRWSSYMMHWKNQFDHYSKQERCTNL", "test": "(§1) Inhibition of electric eel AChE using acetylthiocholine iodide as substrate measured over 5 mins by Ellman's method"}, "Acetylcholinesterase [2]": {"biological_target": "T1, Acetylcholinesterase (Electrophorus electricus, UniProt O42275)", "T1 sequence (O42275 whole entry)": "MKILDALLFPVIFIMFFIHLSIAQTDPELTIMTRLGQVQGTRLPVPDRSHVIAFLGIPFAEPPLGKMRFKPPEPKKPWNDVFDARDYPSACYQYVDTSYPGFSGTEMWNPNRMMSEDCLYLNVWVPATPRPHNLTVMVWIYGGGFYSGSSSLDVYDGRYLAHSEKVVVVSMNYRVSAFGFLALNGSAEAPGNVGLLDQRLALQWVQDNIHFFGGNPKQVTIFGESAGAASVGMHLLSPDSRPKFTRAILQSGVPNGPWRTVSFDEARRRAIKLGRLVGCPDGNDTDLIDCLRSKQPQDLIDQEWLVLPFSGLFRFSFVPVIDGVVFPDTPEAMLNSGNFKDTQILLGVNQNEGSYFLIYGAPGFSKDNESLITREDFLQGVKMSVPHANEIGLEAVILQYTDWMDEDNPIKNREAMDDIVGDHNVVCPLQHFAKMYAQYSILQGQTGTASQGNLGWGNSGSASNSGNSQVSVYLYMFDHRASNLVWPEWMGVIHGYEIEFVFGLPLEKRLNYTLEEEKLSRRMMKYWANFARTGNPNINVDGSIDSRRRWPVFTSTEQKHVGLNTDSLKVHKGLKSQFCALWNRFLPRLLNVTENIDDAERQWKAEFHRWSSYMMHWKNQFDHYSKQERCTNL", "test": "as §1"}, "Acetylcholinesterase [3]": {"biological_target": "T2, Acetylcholinesterase (Homo sapiens, UniProt P22303)", "T2 sequence (P22303 whole entry)": "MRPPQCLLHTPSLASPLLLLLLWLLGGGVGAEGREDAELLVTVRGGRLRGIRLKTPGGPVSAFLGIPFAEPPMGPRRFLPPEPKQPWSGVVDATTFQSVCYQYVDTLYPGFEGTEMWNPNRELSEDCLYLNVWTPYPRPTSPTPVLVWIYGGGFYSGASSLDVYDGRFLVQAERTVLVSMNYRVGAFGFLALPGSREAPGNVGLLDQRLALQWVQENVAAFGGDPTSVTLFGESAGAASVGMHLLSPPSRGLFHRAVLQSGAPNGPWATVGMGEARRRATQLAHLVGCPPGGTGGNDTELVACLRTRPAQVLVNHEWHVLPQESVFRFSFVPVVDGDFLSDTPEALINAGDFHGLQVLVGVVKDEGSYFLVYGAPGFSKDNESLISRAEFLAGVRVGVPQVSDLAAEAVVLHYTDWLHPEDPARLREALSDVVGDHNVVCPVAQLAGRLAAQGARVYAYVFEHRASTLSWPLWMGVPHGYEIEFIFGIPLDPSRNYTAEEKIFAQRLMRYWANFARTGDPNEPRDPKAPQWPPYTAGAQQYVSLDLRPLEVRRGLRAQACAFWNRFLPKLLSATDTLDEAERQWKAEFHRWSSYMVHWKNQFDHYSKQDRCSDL", "test": "Inhibition of human AChE using acetylthiocholine iodide as substrate measured over 5 mins by Ellman's method"}, "[4]": {"biological_target": "Cholinesterase (Equus caballus) (UniProt P81908)", "sequence (P81908 whole entry)": "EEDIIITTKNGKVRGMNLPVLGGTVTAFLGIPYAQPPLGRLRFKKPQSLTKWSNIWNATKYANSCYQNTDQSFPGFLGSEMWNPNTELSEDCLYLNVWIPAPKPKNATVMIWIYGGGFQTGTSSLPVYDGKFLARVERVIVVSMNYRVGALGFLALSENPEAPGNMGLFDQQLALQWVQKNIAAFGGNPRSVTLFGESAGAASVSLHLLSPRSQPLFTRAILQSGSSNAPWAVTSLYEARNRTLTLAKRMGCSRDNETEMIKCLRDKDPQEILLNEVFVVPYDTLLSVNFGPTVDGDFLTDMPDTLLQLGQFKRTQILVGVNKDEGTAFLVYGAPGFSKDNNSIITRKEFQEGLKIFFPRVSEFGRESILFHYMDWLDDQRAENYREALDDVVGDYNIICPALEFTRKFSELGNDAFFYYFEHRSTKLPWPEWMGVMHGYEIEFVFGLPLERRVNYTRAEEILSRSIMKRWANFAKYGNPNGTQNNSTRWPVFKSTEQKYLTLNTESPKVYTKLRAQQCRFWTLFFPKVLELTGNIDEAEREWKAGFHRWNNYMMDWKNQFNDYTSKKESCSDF", "test": "(§2) Reversible competitive inhibition of equine serum BChE using acetylthiocholine iodide as substrate measured over 5 mins by Ellman's method"}, "Cholinesterase [5]": {"biological_target": "T3, Cholinesterase (Equus caballus, UniProt P81908)", "T3 sequence (P81908 whole entry)": "as above", "test": "as §2"}, "Acetylcholinesterase [6]": {"biological_target": "T1, Acetylcholinesterase", "test": "Reversible competitive inhibition of electric eel AChE using acetylthiocholine iodide as substrate measured over 5 mins by Dixon plot analysis"}, "[7]": {"biological_target": "Cholinesterase (Equus caballus) (UniProt P81908)", "conditions": "1 mM", "description": "Inhibition of equine serum BChE at 1 mM"}, "Acetylcholinesterase [8]": {"biological_target": "T2, Acetylcholinesterase", "test": "Reversible competitive inhibition of human AChE using acetylthiocholine iodide as substrate measured over 5 mins by Dixon plot analysis"}, "Cholinesterase [9]": {"biological_target": "T3, Cholinesterase", "test": "Inhibition of equine serum BChE using acetylthiocholine iodide as substrate measured over 5 mins by Dixon plot analysis"}, "[10]": {"biological_target": "Acetylcholinesterase (Electrophorus electricus) (UniProt O42275)", "test": "Inhibition of electric eel AChE using acetylthiocholine iodide as substrate at 8.43 uM measured over 5 mins by Ellman's method relative to control"}, "[11]": {"test": "Toxicity in Balb/c mouse hemidiaphragm assessed as effect on directly evoked muscle twitch amplitudes at 8.43 uM after 60 mins", "type": "tissue-based, Diaphragm", "conditions": "1 h"}, "[12]": {"test": "Toxicity in Balb/c mouse hemidiaphragm assessed as effect on indirectly evoked muscle twitch amplitudes at 8.43 uM after 60 mins", "type": "tissue-based, Diaphragm", "conditions": "1 h"}, "[13]": {"test": "Toxicity in Balb/c mouse hemidiaphragm assessed as effect on amplitude of endplate potentials after 30 to 60 mins mins in presence of conotoxin GIIIB", "type": "tissue-based, Diaphragm"}, "[14]": {"test": "Toxicity in Balb/c mouse hemidiaphragm assessed as effect on endplate potentials half decay after 30 to 60 mins mins in presence of conotoxin GIIIB", "type": "tissue-based, Diaphragm"}, "[15]": {"test": "Toxicity in Balb/c mouse hemidiaphragm assessed as effect on amplitude of directly evoked tetanic muscle contractions at 8.43 uM after 60 mins", "type": "tissue-based, Diaphragm", "conditions": "1 h"}, "[16]": {"test": "Toxicity in Balb/c mouse hemidiaphragm assessed as effect on amplitude of indirectly evoked tetanic muscle contractions at 8.43 uM after 60 mins", "type": "tissue-based, Diaphragm", "conditions": "1 h"}},
  "data": [
    {"smiles": "O=C1C2=C3C4=[N+](CCc5c[nH]c1c54)[C@@H]1C(=O)C=C4S[C@@H](C[C@@]43[C@H]1O)N2", "note": "[DISCORHABDIN L]", "values": [
      {"measurement": "inhibition", "setting": "[1]", "value": "Dose-dependent effect"},
      {"measurement": "IC50", "setting": "Acetylcholinesterase [2]", "value": 25.7, "unit": "µM"},
      {"measurement": "IC50", "setting": "Acetylcholinesterase [3]", "value": 158, "unit": "µM"},
      {"measurement": "inhibition", "setting": "Acetylcholinesterase [3]", "value": "Dose-dependent effect"},
      {"measurement": "inhibition", "setting": "[4]", "value": "Dose-dependent effect"},
      {"measurement": "IC50", "setting": "Cholinesterase [5]", "value": 531, "unit": "µM"},
      {"measurement": "Ki", "setting": "Acetylcholinesterase [6]", "value": 15, "unit": "µM"}
    ]},
    {"smiles": "COc1ccc2c3c1O[C@H]1C[C@@H](O)C=C[C@@]31CCN(C)C2", "values": [
      {"measurement": "inhibition", "setting": "[7]", "value": 80.3, "unit": "%"}
    ]},
    {"smiles": "O=C1C2=C(C3=NCCc4c[nH]c1c43)C1(C=CN2)C=C(Br)C(O)C(Br)=C1", "note": "(stereo not given)", "values": [
      {"measurement": "inhibition", "setting": "[1]", "value": "Dose-dependent effect"},
      {"measurement": "IC50", "setting": "Acetylcholinesterase [2]", "value": 14.5, "unit": "µM"},
      {"measurement": "IC50", "setting": "Acetylcholinesterase [3]", "value": 152, "unit": "µM"},
      {"measurement": "inhibition", "setting": "Acetylcholinesterase [3]", "value": "Dose-dependent effect"},
      {"measurement": "inhibition", "setting": "[4]", "value": "Dose-dependent effect"},
      {"measurement": "IC50", "setting": "Cholinesterase [5]", "value": 15.8, "unit": "µM"},
      {"measurement": "Ki", "setting": "Acetylcholinesterase [6]", "value": 3.5, "unit": "µM"},
      {"measurement": "Ki", "setting": "Acetylcholinesterase [8]", "value": 98, "unit": "µM"},
      {"measurement": "Ki", "setting": "Cholinesterase [9]", "value": 17.5, "unit": "µM"}
    ]},
    {"smiles": "O=C1C=C2S[C@H]3C[C@]2(C=C1Br)C1=C(N3)C(=O)c2[nH]cc3c2C1=NCC3", "note": "[DISCORHABDIN B]", "values": [
      {"measurement": "inhibition", "setting": "[1]", "value": "Dose-dependent effect"},
      {"measurement": "IC50", "setting": "Acetylcholinesterase [2]", "value": 5.7, "unit": "µM"},
      {"measurement": "IC50", "setting": "Acetylcholinesterase [3]", "value": 49.4, "unit": "µM"},
      {"measurement": "inhibition", "setting": "Acetylcholinesterase [3]", "value": "Dose-dependent effect"},
      {"measurement": "inhibition", "setting": "[4]", "value": "Dose-dependent effect"},
      {"measurement": "IC50", "setting": "Cholinesterase [5]", "value": 137, "unit": "µM"},
      {"measurement": "Ki", "setting": "Acetylcholinesterase [6]", "value": 1.9, "unit": "µM"},
      {"measurement": "Ki", "setting": "Acetylcholinesterase [8]", "value": 22.8, "unit": "µM"},
      {"measurement": "Ki", "setting": "Cholinesterase [9]", "value": 76, "unit": "µM"}
    ]},
    {"smiles": "O=C(O)C(F)(F)F.O=C1CC[C@@]2(C=CNC3=C2C2=NCCc4c[nH]c(c42)C3=O)C=C1Br", "values": [
      {"measurement": "inhibition", "setting": "[1]", "value": "Dose-dependent effect"},
      {"measurement": "IC50", "setting": "Acetylcholinesterase [2]", "value": 1.3, "unit": "µM"},
      {"measurement": "IC50", "setting": "Acetylcholinesterase [3]", "value": 116, "unit": "µM"},
      {"measurement": "inhibition", "setting": "Acetylcholinesterase [3]", "value": "Dose-dependent effect"},
      {"measurement": "inhibition", "setting": "[4]", "value": "Dose-dependent effect"},
      {"measurement": "IC50", "setting": "Cholinesterase [5]", "value": 7, "unit": "µM"},
      {"measurement": "Ki", "setting": "Acetylcholinesterase [6]", "value": 1.6, "unit": "µM"},
      {"measurement": "Ki", "setting": "Acetylcholinesterase [8]", "value": 56.2, "unit": "µM"},
      {"measurement": "Ki", "setting": "Cholinesterase [9]", "value": 5, "unit": "µM"},
      {"measurement": "inhibition", "setting": "[10]", "value": 80, "unit": "%"},
      {"measurement": "Activity", "setting": "[11]", "value": "Non-Toxic"},
      {"measurement": "Activity", "setting": "[12]", "value": "Non-Toxic"},
      {"measurement": "Activity", "setting": "[13]", "value": "Non-Toxic"},
      {"measurement": "Activity", "setting": "[14]", "value": "Non-Toxic"},
      {"measurement": "Activity", "setting": "[15]", "value": "Non-Toxic"},
      {"measurement": "Activity", "setting": "[16]", "value": "Non-Toxic"}
    ]},
    {"smiles": "CNC(=O)Oc1ccc2c(c1)[C@]1(C)CCN[C@@H]1N2", "values": [
      {"measurement": "IC50", "setting": "Acetylcholinesterase [2]", "value": 3, "unit": "µM"},
      {"measurement": "IC50", "setting": "Acetylcholinesterase [3]", "value": 14.5, "unit": "µM"},
      {"measurement": "IC50", "setting": "Cholinesterase [5]", "value": 28.5, "unit": "µM"}
    ]}
  ]
}
